Data from patent US9926264B2, “Phenylcarbamate derivatives as formyl peptide receptor modulators” (Allergan, Inc., priority 2013, dated 2018).

Biological target: T1, FPR2 (Homo sapiens, UniProt P25090)
T1 construct: expressed in transfected cells; host or cells: CHO-Gα16 cells
T1 sequence (P25090 1-351): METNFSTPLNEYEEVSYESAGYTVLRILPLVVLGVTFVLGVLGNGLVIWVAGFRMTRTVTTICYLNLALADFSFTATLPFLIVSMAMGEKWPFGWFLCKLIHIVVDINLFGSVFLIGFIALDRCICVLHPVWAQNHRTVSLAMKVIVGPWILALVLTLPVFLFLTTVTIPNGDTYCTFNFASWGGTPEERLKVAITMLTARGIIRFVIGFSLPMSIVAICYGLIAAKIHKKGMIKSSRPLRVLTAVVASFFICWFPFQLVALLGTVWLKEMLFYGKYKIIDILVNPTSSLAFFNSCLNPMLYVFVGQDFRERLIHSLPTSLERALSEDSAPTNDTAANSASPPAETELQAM
Experiment: compound-induced calcium activity on FLIPR Tetra in CHO-Gα16 cells stably expressing FPR2
Format: cell-based
Settings: for Emax: efficacy value in brackets after EC50, read-out: FPR2 Gα16-CHO (% eff); for EC50: tested 0.61 to 10,000 nM
Experimental: CHO-Gα16 cells stably expressing FPR2 were cultured in (F12, 10% FBS, 1% PSA, 400 μg/ml geneticin and 50 μg/ml hygromycin) and HEK-Gqi5 cells stable expressing FPR1 were cultured in (DMEM high glucose, 10% FBS, 1% PSA, 400 μg/ml geneticin and 50 μg/ml hygromycin). In general, the day before the experiment, 18,000 cells/well were plated in a 384-well clear bottom poly-D-lysine coated plate. The following day the screening compound-induced calcium activity was assayed on the FLIPR^Tetra. The drug plates were prepared in 384-well microplates using the EP3 and the MultiPROBE robotic liquid handling systems. Compounds were tested at concentrations ranging from 0.61 to 10,000 nM. Results are expressed as EC50 (nM) and % efficacy values.

Row | Compound | Emax [%] | EC50 [nM]
1 | CC(C)C[C@H](OC(=O)Nc1ccc(C(F)(F)F)cc1)C(=O)O [Intermediate 4, (2S)-4-Methyl-2-({[4-(Trifluoromethyl)phenyl]carbamoyl}oxy)pentanoic acid] | 88 | 24.7
2 | CC(C)C[C@H](OC(=O)Nc1ccc(Br)cc1)C(=O)NCCN [Compound 39, (1S)-1-{[(2-aminoethyl)amino]carbonyl}-3-methylbutyl (4-bromophenyl) carbamate] | 89 | 78
3 | CC(C)C[C@H](OC(=O)Nc1ccc(Br)cc1)C(=O)N(C)CC(=O)OC(C)(C)C [Compound 3, tert-Butyl {[(2S)-2-{[(4-Bromophenyl)carbamoyl]oxy}-4-methylpentanoyl](methyl)amino}acetate] | 101 | 109
4 | CC(C)(C)OC(=O)CNC(=O)[C@H](Cc1ccccc1)OC(=O)Nc1ccc(Br)cc1 [Compound 34, tert-Butyl {[(2S)-2-({[(4-bromophenyl)amino]carbonyl}oxy)-3-phenylpropanoyl]amino}acetate] | 103 | 106
5 | CC(C)C[C@H](OC(=O)Nc1ccc(C(F)(F)F)cc1)C(=O)N(C)Cc1nnn[nH]1 [Compound 17, (2S)-4-methyl-1-[methyl(1H-tetrazol-5-ylmethyl)amino]-1-oxopentan-2-yl [4-(trifluoromethyl)phenyl]carbamate] | 91 | 2.4
6 | CC(C)C[C@H](OC(=O)Nc1ccc(Br)cc1)C(=O)N(C)Cc1nnn[nH]1 [Compound 16, (2S)-4-methyl-1-[methyl(1H-tetrazol-5-ylmethyl)amino]-1-oxopentan-2-yl (4-bromophenyl)carbamate] | 98 | 0.81
7 | CCN(CC(=O)O)C(=O)[C@H](CC(C)C)OC(=O)Nc1ccc(Br)cc1 [Compound 24, {[(2S)-2-{[(4-Bromophenyl)carbamoyl]oxy}-4-methylpentanoyl](ethyl)amino}acetic acid] | 95 | 0.24
8 | CC(C)C[C@H](OC(=O)Nc1ccc(Br)cc1)C(=O)N(C)CC(=O)O [Compound 21, {[(2S)-2-{[(4-Bromophenyl)carbamoyl]oxy}-4-methylpentanoyl](methyl)amino}acetic acid] | 106 | 0.25
9 | CCCN(CC(=O)OC(C)(C)C)C(=O)[C@H](CC(C)C)OC(=O)Nc1ccc(C(F)(F)F)cc1 [Compound 29, tert-Butyl [{(2S)-4-methyl-2-[({[4-(trifluoromethyl)phenyl]amino}carbonyl)oxy]pentanoyl}(propyl)amino]acetate] | 101 | 11.4
10 | CC(C)C[C@H](OC(=O)Nc1ccc(C(F)(F)F)cc1)C(=O)NCC(=O)O [Compound 20, {[(2S)-4-Methyl-2-({[4-(trifluoromethyl)phenyl]carbamoyl}oxy)pentanoyl]amino}acetic acid] | 99 | 3.9

Second part, the compound after the results:

Row | Emax [%] | EC50 [nM] | Compound
11 | 112 | 2020 | CC(C)C[C@H](OC(=O)Nc1ccc(C(F)(F)F)cc1)C(=O)NCC(=O)OC(C)(C)C [Compound 2, tert-Butyl {[(2S)-4-Methyl-2-({[4-(trifluoromethyl)phenyl]carbamoyl}oxy)pentanoyl]amino}acetate]
12 | 95 | 0.3 | CCN(Cc1nnn[nH]1)C(=O)[C@H](CC(C)C)OC(=O)Nc1ccc(Br)cc1 [Compound 31, (1S)-1-{[ethyl(1H-tetrazol-5-ylmethyl)amino]carbonyl}-3-methylbutyl (4-bromophenyl)carbamate]
13 | 105 | 11.7 | CN(CC(=O)OC(C)(C)C)C(=O)[C@H](Cc1ccccc1)OC(=O)Nc1ccc(Br)cc1 [Compound 36, tert-Butyl {[(2S)-2-({[(4-bromophenyl)amino]carbonyl}oxy)-3-phenylpropanoyl](methyl)amino}acetate]
14 | 97 | 0.94 | CC(C)C[C@H](OC(=O)Nc1ccc(C(F)(F)F)cc1)C(=O)N(C)CC(=O)O [Compound 25, {Methyl[(2S)-4-methyl-2-({[4-(trifluoromethyl)phenyl]carbamoyl}oxy)pentanoyl]amino}acetic acid]
15 | 99 | 8.7 | CC(C)C[C@H](OC(=O)Nc1ccc(Br)cc1)C(=O)N(C)CCOS(=O)(=O)O [Compound 27, (2S)-4-Methyl-1-{methyl[2-(sulfooxy)ethyl]amino}-1-oxopentan-2-yl (4-bromophenyl)carbamate]
16 | 55 | 2190 | CC(C)(C)OC(=O)[C@H](Cc1ccccc1)OC(=O)Nc1ccc(Br)cc1 [Intermediate 2a, tert-Butyl (2S)-2-({[(4-bromophenyl)amino]carbonyl}oxy)-3-phenyl propanoate]
